From PubChem BioAssay (NCI)
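Values below derive from 48-hour exposures of cells grown in 96-well plates, with endpoints linearly interpolated between the two concentrations bracketing the appropriate inhibition level. Definition used: TGI = concentration required for complete inhibition of growth.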

Legend:
Assay in all cases: NCI-60 cell line screen, 48 h
[1] = system: SN12C renal
[2] = system: COLO 205 colon
[3] = system: RXF 393 renal
[4] = system: U251 CNS
[5] = system: ACHN renal
[6] = system: HCC-2998 colon
[7] = system: NCI-H522 lung
[8] = system: K-562 leukemia
[9] = system: PC-3 prostate
[10] = system: KM12 colon
[11] = system: UACC-257 melanoma
[12] = system: SK-OV-3 ovarian
[13] = system: EKVX NSCLC
[14] = system: SK-MEL-5 melanoma
[15] = system: DU-145 prostate
[16] = system: SNB-75 CNS
[17] = system: MCF7 breast
[18] = system: MDA-MB-231 breast
[19] = system: SF-268 CNS
[20] = system: MDA-N
[21] = system: SF-295 CNS
[22] = system: TK-10 renal
[23] = system: SW-620 colon
[24] = system: M14 melanoma
[25] = system: HT29 colon
[26] = system: BT-549 breast
[27] = system: NCI-H23 lung
[28] = system: IGROV1 ovarian
[29] = system: MDA-MB-435
[30] = system: LOX IMVI melanoma
[31] = system: NCI-H460 lung
[32] = system: HS 578T breast
[33] = system: CCRF-CEM leukemia
[34] = system: CAKI-1 renal
[35] = system: HL-60(TB) leukemia
[36] = system: HOP-62 NSCLC
[37] = system: 786-0 renal
[38] = system: OVCAR-8 ovarian
[39] = system: HOP-92 NSCLC
[40] = system: A498 renal
[41] = system: OVCAR-3 ovarian
[42] = system: UO-31 renal
[43] = system: A549 NSCLC
[44] = system: NCI/ADR-RES ovarian
[45] = system: HCT-15 colon
[46] = system: UACC-62 melanoma
[47] = system: HCT-116 colon
[48] = system: MALME-3M melanoma
[49] = system: OVCAR-4 ovarian
[50] = system: T-47D breast
[51] = system: SNB-19 CNS
[52] = system: OVCAR-5 ovarian
[53] = system: SK-MEL-2 melanoma
[54] = system: RPMI-8226 leukemia
[55] = system: MOLT-4 leukemia
[56] = system: SK-MEL-28 melanoma

Measured: TGI

O=C(/C=C1\N=C(c2ccccc2)N(c2nc3c(Cl)cc(Cl)cc3s2)C1=O)/C=C/c1ccccc1
> 100 µM: all assays above
